In US20110129504A1, “COMPOSITION FOR CONTROLLING LIPASE CATALYZED REACTIONS” (NESTEC S.A., priority 2007, published 2011):

Legend:
[1] = molecular target: T1, Rhizomucor miehei lipase (Rhizomucor miehei, UniProt P19515); assay: Biphasic decane/buffer system: lipolytic hydrolysis of p-nitrophenylpalmitate; format: biochemical; details: monoglyceride 1.3 E-3 M in decane, p-nitrophenylpalmitate 2E-4M, phosphate buffer pH 5.5, 3,3 E-6 M lipase; 410 nm; vs reference without surfactant
Experimental: (§1) A biphasic system was prepared in glass test tubes with the following composition: • Upper oil phase is composed of 7 ml decane in the absence (control) or presence of (1,3 E-3M) monoglyceride and 20 ul tricaprylin or p-nitrophenypalmitate (2E-4M) • Aqueous phase is composed of 2 ml phosphate buffer, pH 5.5 containing 3,3 E-6 M Rhizomucor miehei lipase. The caprylic acid generation in the presence and absence of monoglycerides (surfactant) is monitored by GC-FID. 100 ul of the upper oil phase are taken and added to 900 ul Chloroform before direct injection into the GC. The nitrophenol generation is followed by spectroscopic analysis at 410 nm of the aqueous phase. FIGS. 7 and 8 show the amount of caprylic acid formed after the lipolytic hydrolysis of the p-nitropheylpalmitate and tricaprylin in the presence of Sn1 (hydrolysable surfactants) or Sn2 (non-hydrolysable) monoglycerides. […] This is an indication that with the used monoglyceride concentration (the concentration was constant at 1.3 E-3 M) not enough surfactant is adsorbing to the water-oil interface, since the Sn2M20:4 is too lipohilic and partitions more into the bulk oil than to the interface.

[2] = molecular target: T1, Rhizomucor miehei lipase; assay: Biphasic decane/buffer system: lipolytic hydrolysis of tricaprylin; format: biochemical; details: monoglyceride 1,3 E-3M in decane, 20 ul tricaprylin, phosphate buffer pH 5.5, 3,3 E-6 M lipase; vs no surfactant; GC-FID
Experimental: as §1

[3] = test system: lipase; assay: TIM gastro-intestinal model (TNO) digestion of Tricaprylin emulsion; format: biochemical
Experimental: 8 ml Tricaprylin containing 2.0 g Sn2-Monopalmitin (non-cleavable surfactant) was mixed with 200 ml phosphate buffer pH 5.5 and 20 mg/ml starch (emulsifier) using an Ultra Turrax for 2 minutes, and subsequent sonification for 10 minutes. The reference emulsion system contains the same amount of tricaprylin and starch, however, no Sn2-monopalmitin. Model digestion runs of the 2 samples were performed using a gastro-intestinal model system provided by TNO. Physiological conditions (e.g. temperature, enzyme type and load, bile salt concentration, pH) were predefined via the TIM programming system. The hydrolysis of Tricaprylin was followed by monitoring the caprylic acid release after passing the different gastro-intestinal compartments. […] The extraction of the generated fatty acids after passing the different compartments was performed by taking 100 ul of the reaction mixture, adding 900 ul chloroform together with 100 ul Chloridric acid 1M. The samples were vortexed and centrifuged at 5000 rpm for 10 min. 500 ul of the supernatant was taken and directly injected into a GC-FID. 3 samples were analysed for each reaction time at each gastro-intestinal compartment.
Additional experiments were performed where sn-2 monopalmitin was replaced Lysophosphotidilcholine (LysoPC). The effect of LysoPC on fat gastric digestion were studied.

[4] = Pendant drop interfacial tension at buffer/decane interface; format: physicochemical
Text: The interfacial tension of pure Tricaprylin (free of any residues of polar lipids), should remain above 30 mN/m. Therefore, a more interfacial active molecule (like monocaprylin), has the capacity to exclude the triglyceride from the interface.

T1 sequence (P19515 95-363): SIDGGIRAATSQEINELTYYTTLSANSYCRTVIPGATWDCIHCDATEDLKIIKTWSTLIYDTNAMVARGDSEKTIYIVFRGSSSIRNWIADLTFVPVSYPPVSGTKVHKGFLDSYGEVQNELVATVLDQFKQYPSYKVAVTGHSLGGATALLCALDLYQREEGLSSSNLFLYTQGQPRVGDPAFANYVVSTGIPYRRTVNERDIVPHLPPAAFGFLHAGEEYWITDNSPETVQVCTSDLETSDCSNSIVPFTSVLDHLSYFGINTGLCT

Compound	kinetics of nitrophenol formation from p-nitrophenylpalmitate [1]	kinetics of lipolytic caprylic acid formation from tricaprylin [2]	also measured
CCCCCCCC(=O)OCC(O)CO (centres unmarked) [Sn1 M8]	quite similar to the observations made in the reference system	–	–
CCCCCCCCCCCC(=O)OCC(O)CO (centres unmarked) [Sn1 M12]	quite similar to the observations made in the reference system	–	–
CCCCCCCCCCCCCCCC(=O)OCC(O)CO (centres unmarked) [Sn1-M16]	quite similar to the observations made in the reference system	–	–
CCCCCCCC(=O)OC(CO)CO [Sn2-M8]	significant reduction	reduced	–
CCCCCCCCCCCC(=O)OC(CO)CO [Sn2-M12]	significant reduction	reduced	–
CCCCCCCCCCCCCCCC(=O)OC(CO)CO [Sn2-M16, Sn-2 Monopalmitin]	significant reduction	reduced	Caprylic acid (C8) detected after passing through the ileum and jejunum ([3]; 8 ml Tricaprylin containing 2.0 g surfactant, phosphate buffer pH 5.5, starch emulsifier, vs reference emulsion without surfactant, GC-FID, FIG. 2): almost no caprylic acid is detected; caprylic acid content in the lumen of the stomach, duodenum, jejunum and in the efflux ([3]; compared with the ileum/jejunum result (almost no caprylic acid), FIGS. 3, 4 and 5): A similar result is obtained
CCCCCCCCCCCCCCCCCCCC(=O)OC(CO)CO [monoarachidin, Sn-2 monoarachidin]	–	–	interfacial tension between the buffer and the decane solution ([4]; as a function of titrated (added) surfactant, FIG. 8): induces a decrease of the measured interfacial tension
CCCCCCCC(=O)OCC(O)CO (centres unmarked) [monocaprylin]	–	–	interfacial activity compared with caprylic acid (C8) and dicaprylin (DC8) ([4]; buffer/decane interface, FIG. 9): considerably more interfacially active
Lysophosphotidilcholine [LysoPC]	–	–	gastric lipolysis of triglycerides ([3]; sn-2 monopalmitin replaced by LysoPC, lumen of stomach, FIG. 3): considerable effect in decreasing gastric lipolysis
